In article PMC5817852 (The Open Medicinal Chemistry Journal, 2018) one finds CC50, EC50 and melting point data, which are given here for eleven compounds.

Some results are limits rather than exact numbers.

One data set deals with HT29 colorectal carcinoma. The data set is described as follows: qHTS cell viability screen (Cell Titer Glo), HT29.
Details: not given
It is filed as cell-based. (Quantitative high-throughput screening tests each substance at several concentrations.)
For orientation: CC50 means the concentration at which the toxic effect on the cells reaches its halfway point. On to `CSc1ccc(/C=C2/C(C)=C(CN(Cc3ccncc3)Cc3ccncc3)c3cc(F)ccc32)cc1` [Compound 49], for which the half-maximal cytotoxic concentration (CC50) amounted to 10.8 ± 1.84 µM.

Still in this data set, the particulars now being: HT29 colorectal carcinoma, 72 hours, cell viability Cell Titer Glo; read-out: CC50 HT29.
Take `CSc1ccc(/C=C2/C(C)=C(CCNCc3ccccc3)c3cc(F)ccc32)cc1` [Compound 7]: the CC50 amounted to 21.8 ± 2.29 µM.
Regarding `CSc1ccc(/C=C2/C(C)=C(CCNCc3ccco3)c3cc(F)ccc32)cc1` [Compound 8], the CC50 turned out to be 4.27 ± 0.33 µM.
Turning to `CSc1ccc(/C=C2/C(C)=C(CCNCCN3CCCCC3)c3cc(F)ccc32)cc1` [Compound 9], the cytotoxic concentration (CC50) came out at 1.81 ± 0.06 µM.
Still for that read-out and setting: as for `CSc1ccc(/C=C2/C(C)=C(CNC(=O)CN)c3cc(F)ccc32)cc1` [Compound 21], the figure is 5.49 ± 0.21 µM; as for `COc1cc(/C=C2/C(C)=C(CNC(=O)CN)c3cc(F)ccc32)cc(OC)c1OC` [Compound 29], 8.51 ± 1.7 µM.

Staying with this data set, now noted: Homo sapiens, HT-29, 72 h, HT29 colorectal carcinoma, 72 hours, cell viability Cell Titer Glo; read-out: CC50 HT29.
Take `CSc1ccc(/C=C2/C(C)=C(CCN)c3cc(F)ccc32)cc1` [Compound 13]: the CC50 is 4.05 ± 0.16 µM.
Same read-out and setting: to `CSc1ccc(/C=C2/C(C)=C(CCNC(=O)c3ccco3)c3cc(F)ccc32)cc1` [Compound 14] belongs 9.24 ± 1.18 µM; to `CSc1ccc(/C=C2/C(C)=C(CNC(=O)[C@@H](N)CO)c3cc(F)ccc32)cc1` [Compound 22], 5.98 ± 0.24 µM; to `CSc1ccc(/C=C2/C(C)=C(CNC(=O)[C@@H]3CCCN3)c3cc(F)ccc32)cc1` [Compound 25], 3.15 ± 0.17 µM.
The same measure, in the same setting: to `COc1cc(/C=C2/C(C)=C(CNC(=O)[C@@H](N)CO)c3cc(F)ccc32)cc(OC)c1OC` [Compound 30] belongs 11.1 ± 1.35 µM.

Another data set concerns PC3 prostate cancer cell line. The data set is described as follows: qHTS cell viability screen (Cell Titer Glo), PC3. It is filed as cell-based. To be noted: 72 h, PC3 prostate, 72 hours, cell viability Cell Titer Glo; read-out: CC50 PC3.
Take `CSc1ccc(/C=C2/C(C)=C(CCN)c3cc(F)ccc32)cc1` [Compound 13]: the CC50 turned out to be 7.46 ± 0.46 µM.
Same read-out and setting: to `CSc1ccc(/C=C2/C(C)=C(CCNC(=O)c3ccco3)c3cc(F)ccc32)cc1` [Compound 14] belongs 8.92 ± 0.83 µM; to `CSc1ccc(/C=C2/C(C)=C(CNC(=O)[C@@H](N)CO)c3cc(F)ccc32)cc1` [Compound 22], 6.03 ± 0.41 µM; to `CSc1ccc(/C=C2/C(C)=C(CNC(=O)[C@@H]3CCCN3)c3cc(F)ccc32)cc1` [Compound 25], 6.66 ± 0.42 µM.
On the same count and under the same terms, as for `COc1cc(/C=C2/C(C)=C(CNC(=O)[C@@H](N)CO)c3cc(F)ccc32)cc(OC)c1OC` [Compound 30], the figure is 26.5 ± 6.01 µM.

The same data set, now with this note: PC3 prostate, 72 hours, cell viability Cell Titer Glo; read-out: CC50 PC3.
Turning to `CSc1ccc(/C=C2/C(C)=C(CCNCc3ccccc3)c3cc(F)ccc32)cc1` [Compound 7], the 50% cytotoxic concentration (CC50) is greater than 50 µM.
Same read-out and setting: as for `CSc1ccc(/C=C2/C(C)=C(CCNCc3ccco3)c3cc(F)ccc32)cc1` [Compound 8], the figure is 9.94 ± 0.77 µM; as for `CSc1ccc(/C=C2/C(C)=C(CCNCCN3CCCCC3)c3cc(F)ccc32)cc1` [Compound 9], 4.78 ± 0.2 µM; as for `CSc1ccc(/C=C2/C(C)=C(CNC(=O)CN)c3cc(F)ccc32)cc1` [Compound 21], 7.27 ± 0.31 µM.
Regarding `COc1cc(/C=C2/C(C)=C(CNC(=O)CN)c3cc(F)ccc32)cc(OC)c1OC` [Compound 29], the CC50 amounted to 17.9 ± 2.08 µM.
On the same count and under the same terms, as for `CSc1ccc(/C=C2/C(C)=C(CN(Cc3ccncc3)Cc3ccncc3)c3cc(F)ccc32)cc1` [Compound 49], the figure is 12.7 ± 1.44 µM.

A further data set relates to MDA-MB-231 breast cancer cell line. Description: qHTS cell viability screen (Cell Titer Glo), MDA-MB-231. It is filed as cell-based.
Details: not given
As to `CSc1ccc(/C=C2/C(C)=C(CN(Cc3ccncc3)Cc3ccncc3)c3cc(F)ccc32)cc1` [Compound 49], the CC50 came to 9.5 ± 2.14 µM.

The data set is the same for the next values; noted with them: Homo sapiens, MDA-MB-231, 96 h, MDA-MB-231 breast, 96 hours, cell viability Cell Titer Glo; read-out: CC50 MDA-MB-231.
With `CSc1ccc(/C=C2/C(C)=C(CCN)c3cc(F)ccc32)cc1` [Compound 13], the CC50 stood at 7.2 ± 0.29 µM.
On to `CSc1ccc(/C=C2/C(C)=C(CCNC(=O)c3ccco3)c3cc(F)ccc32)cc1` [Compound 14], for which the CC50 worked out at 16.8 ± 3.2 µM.
Regarding `CSc1ccc(/C=C2/C(C)=C(CNC(=O)[C@@H](N)CO)c3cc(F)ccc32)cc1` [Compound 22], the CC50 turned out to be 7.43 ± 0.87 µM.
Same read-out and setting: as for `CSc1ccc(/C=C2/C(C)=C(CNC(=O)[C@@H]3CCCN3)c3cc(F)ccc32)cc1` [Compound 25], the figure is 4.35 ± 0.19 µM; as for `COc1cc(/C=C2/C(C)=C(CNC(=O)[C@@H](N)CO)c3cc(F)ccc32)cc(OC)c1OC` [Compound 30], 11.9 ± 2.27 µM.

Staying with this data set, now noted: MDA-MB-231 breast, 96 hours, cell viability Cell Titer Glo; read-out: CC50 MDA-MB-231.
On to `CSc1ccc(/C=C2/C(C)=C(CCNCc3ccccc3)c3cc(F)ccc32)cc1` [Compound 7], for which the CC50 came out at 46.5 ± 1.92 µM.
With `CSc1ccc(/C=C2/C(C)=C(CCNCc3ccco3)c3cc(F)ccc32)cc1` [Compound 8], the 50% cytotoxic concentration (CC50) worked out at 7.77 ± 0.54 µM.
Same read-out and setting: as for `CSc1ccc(/C=C2/C(C)=C(CCNCCN3CCCCC3)c3cc(F)ccc32)cc1` [Compound 9], the figure is 3.73 ± 0.21 µM; as for `CSc1ccc(/C=C2/C(C)=C(CNC(=O)CN)c3cc(F)ccc32)cc1` [Compound 21], 7.3 ± 0.62 µM; as for `COc1cc(/C=C2/C(C)=C(CNC(=O)CN)c3cc(F)ccc32)cc(OC)c1OC` [Compound 29], 9.92 ± 2.13 µM.

Another data set relates to NALM16 cell line (acute lymphoblastic leukemia). Description: Additional cancer cell line panel, NALM16. To be noted: confidence intervals in parentheses; NA: not active. It is filed as cell-based, human.
What is called EC50 is the concentration needed to bring the measured effect to its halfway point. Turning to `COc1cc(/C=C2/C(C)=C(CNC(=O)CN)c3cc(F)ccc32)cc(OC)c1OC` [Compound 29], the EC50 came out at 230 µM.
Turning to `CSc1ccc(/C=C2/C(C)=C(CN(Cc3ccncc3)Cc3ccncc3)c3cc(F)ccc32)cc1` [Compound 49], the EC50 was determined as 0.051 µM.

The test system of a further data set is REH cells (precursor B-cell ALL). The data set is described as follows: Additional cancer cell line panel, REH. To be noted: Homo sapiens, REH; confidence intervals in parentheses; NA: not active; read-out: EC50 REH. It is filed as cell-based, human.
As for `CSc1ccc(/C=C2/C(C)=C(CNC(=O)[C@@H]3CCCN3)c3cc(F)ccc32)cc1` [Compound 25], the half-maximal effective concentration (EC50) was 150 µM.
On to `COc1cc(/C=C2/C(C)=C(CNC(=O)[C@@H](N)CO)c3cc(F)ccc32)cc(OC)c1OC` [Compound 30], for which the half-maximal effective concentration (EC50) came to 53 µM.

Tested on in a further data set: not listed separately
Description: BJ cell cytotoxicity counter screen. To be noted: human, BJ cells (normal human foreskin fibroblast cell line). From the text: (§1) Most analogs in the presented series are lipophilic while also containing a positively charged amine. Lipophilic basic amines can accumulate in cell membranes if their lipophilic atom groups form favorable non-polar contacts with lipid chains while their charged amine is interacting with fatty acid head groups. Such association with lipids can lead to cytotoxicity through membrane destabilization. Therefore, we evaluated a number of representative compounds against BJ cells, a normal human foreskin fibroblast cell line, where cytotoxicity was determined at 10 µM drug concentration, as described previously.
(§2) minimum locked at 0 and 100 respectively.
(§3) children with ALL in relapse.
(§4) foreskin fibroblast cell line (BJ).
(§5) Table 2. […] SSA: Sulindac sulfide
(In general: The purpose of a counterscreen is to sort out artefacts and off-target activity.)
For `CSc1ccc(/C=C2/C(C)=C(CCN)c3cc(F)ccc32)cc1` [Compound 13], the EC50 was greater than 7.57 µM.
The compound `CSc1ccc(/C=C2/C(C)=C(CCNC(=O)c3ccco3)c3cc(F)ccc32)cc1` [Compound 14] had an EC50 greater than 7.57 µM.
On the same count and under the same terms, to `CSc1ccc(/C=C2/C(C)=C(CNC(=O)[C@@H](N)CO)c3cc(F)ccc32)cc1` [Compound 22] belongs greater than 22.7 µM; to `CSc1ccc(/C=C2/C(C)=C(CNC(=O)[C@@H]3CCCN3)c3cc(F)ccc32)cc1` [Compound 25], greater than 22.7 µM; to `COc1cc(/C=C2/C(C)=C(CNC(=O)[C@@H](N)CO)c3cc(F)ccc32)cc(OC)c1OC` [Compound 30], greater than 22.7 µM.

The test system of another data set is BJ cells, normal human foreskin fibroblast cell line. The data set is described as follows: BJ cell cytotoxicity counter screen.
Details: not given
Source text: as §1, §2, §3, §4, §5
Take `CSc1ccc(/C=C2/C(C)=C(CN(Cc3ccncc3)Cc3ccncc3)c3cc(F)ccc32)cc1` [Compound 49]: the EC50 was greater than 22.7 µM.

The data set is the same for the next values; noted with them: read-out: EC50 BJ (cytotoxicity); BJ normal human foreskin fibroblasts; confidence intervals in parentheses.
As to `CSc1ccc(/C=C2/C(C)=C(CCNCc3ccccc3)c3cc(F)ccc32)cc1` [Compound 7], the EC50 was greater than 7.57 µM.
With `CSc1ccc(/C=C2/C(C)=C(CCNCc3ccco3)c3cc(F)ccc32)cc1` [Compound 8], the concentration giving a half-maximal response (EC50) is greater than 7.57 µM.
With `CSc1ccc(/C=C2/C(C)=C(CCNCCN3CCCCC3)c3cc(F)ccc32)cc1` [Compound 9], the EC50 is greater than 7.57 µM.
On to `CSc1ccc(/C=C2/C(C)=C(CNC(=O)CN)c3cc(F)ccc32)cc1` [Compound 21], for which the EC50 was greater than 22.7 µM.
For the compound `COc1cc(/C=C2/C(C)=C(CNC(=O)CN)c3cc(F)ccc32)cc(OC)c1OC` [Compound 29], the EC50 is greater than 22.7 µM.

Tested on in the next data set: not given
Test: not given
Details: not given
By melting point is commonly meant the temperature of the solid-liquid transition. `CSc1ccc(/C=C2/C(C)=C(CCNC(=O)c3ccco3)c3cc(F)ccc32)cc1` [Compound 14] had a melting point of 168 to 170 °C.
`CSc1ccc(/C=C2/C(C)=C(CNC(=O)[C@@H](N)CO)c3cc(F)ccc32)cc1` [Compound 22] showed a melting point of 146 to 148 °C.
`COc1cc(/C=C2/C(C)=C(CNC(=O)[C@@H](N)CO)c3cc(F)ccc32)cc(OC)c1OC` [Compound 30] had a melting point of 118 to 120 °C.
